The text below walks through data of PubChem BioAssay (NCI).

The structures appear in SMILES notation.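 Briefly, cells in 96-well plates were exposed to five compound concentrations for 48 h, and endpoints were estimated by linear interpolation. The concentration for 50% growth inhibition is given as GI50. TGI denotes the concentration required for complete inhibition of growth.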

Among the test systems are HT29 colon; SR leukemia; UACC-62 melanoma; UO-31 renal; TK-10 renal; HOP-62 NSCLC; IGROV1 ovarian; KM12 colon; NCI/ADR-RES ovarian; NCI-H226 lung.
Common to all, as to assay: NCI-60 cell line screen, 48 h

For `O=C(Nc1cc(Cl)ccc1O)c1ccc(Nc2ccnc(C(F)(F)F)c2)cc1`, the GI50 in the experiment on HT29 colon is 6.35 µM; in the experiment on SR leukemia, 2.52 µM; with UACC-62 melanoma it was 2.3 µM; in the experiment with UO-31 renal, 1.93 µM; in the experiment on TK-10 renal, 2 µM; in the experiment on HOP-62 NSCLC it was 3.23 µM. The GI50 in the experiment on IGROV1 ovarian was 2.34 µM; in the experiment with KM12 colon, 3.19 µM; in the experiment on NCI/ADR-RES ovarian, 2.93 µM; with NCI-H226 lung, 2.02 µM. For the same compound, the TGI is > 100 µM with HT29 colon; 9.84 µM with SR leukemia; 15.5 µM in the experiment on UACC-62 melanoma; 6.13 µM in the experiment on UO-31 renal; 7.89 µM in the experiment with TK-10 renal; 23.7 µM with HOP-62 NSCLC. In addition, the TGI with IGROV1 ovarian is 8.19 µM; with KM12 colon, 18.8 µM; with NCI/ADR-RES ovarian it was > 100 µM; in the experiment on NCI-H226 lung, 7.33 µM.
Regarding `COc1ccc(/C(C)=C(\c2ccc(OCCN3CCCCCC3)cc2)c2ccc(OC(=O)C3CCCCC3)cc2)cc1`, the GI50 in the experiment on HT29 colon is 0.46 µM; in the experiment with SR leukemia, 0.291 µM; in the experiment on UACC-62 melanoma, 0.892 µM; in the experiment on UO-31 renal, 0.453 µM; in the experiment on TK-10 renal, 1.84 µM; with HOP-62 NSCLC, 1.89 µM. Moreover, the GI50 in the experiment with IGROV1 ovarian is 1.21 µM; with KM12 colon, 0.854 µM; in the experiment with NCI/ADR-RES ovarian, 1.61 µM; with NCI-H226 lung, 2.02 µM. The TGI with HT29 colon stood at 2.14 µM; with SR leukemia, 1.07 µM; in the experiment on UACC-62 melanoma, 2.85 µM; in the experiment with UO-31 renal, 2.22 µM; in the experiment on TK-10 renal it was 4.25 µM; with HOP-62 NSCLC, 4.21 µM. Also, the TGI with IGROV1 ovarian is 3.88 µM; in the experiment with KM12 colon, 3.27 µM; in the experiment with NCI/ADR-RES ovarian it was 4.78 µM; in the experiment with NCI-H226 lung it was 4.77 µM.
Consider `O=C(/C(=C\c1c(-c2ccccc2)[nH]c2ccccc12)S(=O)(=O)c1ccccc1)c1ccccc1`, for which the GI50 in the experiment with HT29 colon was > 100 µM; in the experiment with SR leukemia, 9.91 µM; in the experiment with UACC-62 melanoma, 8.95 µM; with UO-31 renal, > 100 µM; with TK-10 renal, > 100 µM; with HOP-62 NSCLC it was > 100 µM. Besides, the GI50 in the experiment with IGROV1 ovarian was > 100 µM; in the experiment on KM12 colon it was 5.06 µM; with NCI/ADR-RES ovarian, > 100 µM; with NCI-H226 lung, > 100 µM. Besides, the TGI with HT29 colon, in the experiment on SR leukemia, with UACC-62 melanoma, in the experiment on UO-31 renal, in the experiment with TK-10 renal and with HOP-62 NSCLC was > 100 µM each time. Besides, the TGI with IGROV1 ovarian, in the experiment with KM12 colon, with NCI/ADR-RES ovarian and with NCI-H226 lung was > 100 µM in each case.
